Source: a melting point compilation (Tetko et al.; mined from patent text by program, amines drawn as free bases though some values may be those of a salt)

Point of comparison: `O=C(Nc1n[nH]c(=S)s1)N[C@@H](Cc1ccccc1)C(=O)O`, melting point 130 °C. Against it:
- COc1ccc(S(=O)(=O)NCCc2ccc(C(=O)O)cc2)cc1 — higher, 177 to 178 °C
- COc1ccc(-c2csc(C(=O)Nc3cc4ccccc4cn3)n2)cc1OC — higher, 196 to 202 °C
- O=C(O)Cc1[nH]nc2c1CCCC2 — higher, 155 to 156 °C
- O=C1Nc2cccc(-c3cccc(NC(=O)c4ccc(F)cc4)c3)c2/C1=C/c1ccc[nH]1 — not separable, 130 to 131 °C
- O=C(c1ccccc1)N(CCCCn1ccnc1)C1=Nc2cccc3cccc1c23 — higher, 139 to 140 °C
- CC(=O)Oc1cnccc1CCCOc1cccnc1Oc1cccc(Cl)c1 — lower, 107 to 126 °C
- COC(=O)c1ccc(C#CC(O)c2cccc3c2OCCC3(C)C)cc1O (centres undefined) — lower, 122 to 123 °C
- COc1ccc(SCCNC(=O)c2ccc(OCC=C(C)CCC=C(C)C)cc2)nc1 — lower, 82.6 to 83.4 °C
- O=Cc1c(F)cc(Br)cc1Br — lower, 57 to 58 °C
- [N-]=[N+]=Nc1nc(C(F)(F)F)nc(-c2ccccc2)c1-c1ccccc1 — lower, 126 to 128 °C
- Oc1ccc(Oc2ccc(OC(F)(F)F)cc2)cc1 — lower, 44 to 46 °C
- O=C(O)c1cc2cc(OCCNC[C@@H](O)c3csc(C(F)(F)F)n3)ccc2o1 — higher, 155 to 163 °C
- Nc1cc(F)c2c(c1)Cc1cc(F)ccc1-2 — lower, 119 to 120 °C
- O=C(O)COc1ccc(-c2c3ccccc3cc3sc4ccccc4c23)cc1I — higher, 248 to 249 °C
- CC(C)OC(=O)c1cc(-n2c(=O)[nH]c(C(F)(F)F)c(F)c2=O)c(F)cc1Cl — lower, 102 to 106 °C
- COCCCc1cccc(C2(c3ccc(OC(F)F)cc3)N=C(N)N(C)C2=O)c1 (centres undefined) — lower, 48 to 50 °C
- CC(=O)Oc1ccccc1C(=O)N1CCN(C(=O)c2ccccc2OC(C)=O)CC1 — higher, 175 to 177 °C
- CN1C(=O)C(N)N=C(c2ccccc2)c2cnccc21 (centres undefined) — lower, 109 to 123 °C
- Cc1nc(-c2ccc(C#N)cc2)sc1C(=O)N(CCO)[C@H](C)[C@](O)(Cn1cncn1)c1ccc(F)cc1F — lower, 113 to 119 °C
- CC(=O)c1cc(C(=O)O)c(O)c([N+](=O)[O-])c1 — higher, 192 to 193 °C
- COC(=O)C1Oc2ccc(Cl)cc2C(c2ccccc2)(C(C)(C)C)O1 (centres undefined) — lower, 85 °C
- CN(Cc1cc(C(F)(F)F)cc(C(F)(F)F)c1)C(=O)c1c(-c2ccc(F)cc2)c2cccnc2c(=O)n1C — higher, 211 to 212 °C
- Cc1cccc2c1CCCC2c1c[nH]cn1 (centres undefined) — higher, 135 °C
- Cc1nc2c(cc1C(=O)NC(=N)N)CCCCC2 — higher, 230 to 232 °C
- CCCCCCc1cc(C(=O)OCC)c(-c2ccccc2)c(-c2ccccc2)c1C(=O)OCC — lower, 119 to 121 °C
- COc1ccc(N2CCN(Cc3ccc(CNC(C)=O)cc3)CC2)cc1 — higher, 137 to 138 °C
- COc1cc2ncc(C#N)c(Nc3ccc(F)c(Cl)c3)c2cc1-n1cccc1 — higher, 192 to 194 °C
- COc1ccc(CNc2nc(C)nc(C)c2Cl)cc1O — higher, 165 to 168 °C
- CO[C@@H]1C[C@H]2[C@H](C(=O)O)[C@H]2[C@]1(N)C(=O)O — higher, > 250 °C
- O=C(OCc1ccccc1)C1=C(c2ccccc2)C(c2ccccc2)OC1=O (centres undefined) — lower, 111 to 114 °C
- C=CC(=O)N1Cc2ccccc2SC(Cl)C1 (centres undefined) — lower, 66 to 68 °C
- CCCn1c(CO)nc(C(C)C)c1Sc1cc(Cl)cc(Cl)c1 — lower, 104 to 107 °C
- CC1(C)CC2(CC(C)(C)C1Cc1ccccc1)C(=O)C(Cc1ccccc1)C(=O)C2Cc1ccccc1 (centres undefined) — higher, 135 to 136 °C
- OCCc1ccc(-c2ccccc2)s1 — lower, 74 °C
- COC(=O)Cc1ccc(OCCNC(=O)C2Cc3ccccc3N2S(=O)(=O)c2ccc(-c3cc(C)ccc3OC)cc2)cc1 (centres undefined) — lower, 57 to 60 °C
- CCc1[nH]nc2c1C(=O)c1c(NC(=O)NN3CCN(C)CC3)cccc1-2 — higher, 244 to 246 °C
- CC1(C)[C@@H](Cn2nccn2)CC[C@@]1(C)NCC(=O)N1C[C@@H](F)C[C@H]1C#N — lower, 84 to 87 °C
- CCOCc1nc2c(N)nc3ccc(OCc4ccccc4)cc3c2n1CCCCNS(C)(=O)=O — higher, 182 to 185 °C
- CCCc1cc(COc2cc(C)nc(C)c2OC)ccc1-c1ccccc1S(=O)(=O)Nc1noc(C)c1C — lower, 56 to 59 °C
- COc1cc(OC)nc(NC(=O)NS(=O)(=O)c2ncccc2OS(=O)(=O)N(C)C)n1 — higher, 155 to 157 °C
- CCC1(c2ccc(C(O)C(C)(C)C)cc2)OCCO1 (centres undefined) — lower, 52 to 56 °C
- COc1ccc(C(O)c2nn(C)c3c2CCc2c(C(N)=O)sc(Oc4ccc5c(c4)OCO5)c2-3)cc1 (centres undefined) — higher, 187 to 188 °C
- O=C(O)C(Cc1ccccc1)Oc1ccc(-c2ccc(-c3c(Br)oc4ccccc34)cc2)cc1 (centres undefined) — higher, 148 to 149 °C
- Cc1ccn2cc(CN3CCN(c4ccc(C(N)=O)cc4)CC3)nc2c1 — higher, 217 to 218 °C
- CC(=O)N(O)Cc1ccc(C(O)C#Cc2ccsc2)cc1 (centres undefined) — lower, 126 to 129 °C
- CCOC(=O)N1CCCc2nc3ccccc3c(O)c2C1 — higher, 285 °C
- C=C1c2ccccc2CC(=O)Cc2ccccc21 — lower, 68 to 70 °C
- CCCc1c(OCCCCCC(=O)c2cc(C)c(O)c(O)c2C)ccc(C(=O)O)c1O — lower, 121 to 125 °C
